From patent publication US10894817B2, “Fatty acid modified urocortin-2 analogs for the treatment of diabetes and chronic kidney disease” (priority 2016, dated 2021) come the findings set out here.

The assay has as its target T1, human CRHR2b (Homo sapiens, UniProt Q13324).
T1 construct: expressed in transfected cells; host or cells: Chinese Hamster Ovary (CHO) cells, transient transfection
T1 sequence (Q13324 1-438 isoform Q13324-2): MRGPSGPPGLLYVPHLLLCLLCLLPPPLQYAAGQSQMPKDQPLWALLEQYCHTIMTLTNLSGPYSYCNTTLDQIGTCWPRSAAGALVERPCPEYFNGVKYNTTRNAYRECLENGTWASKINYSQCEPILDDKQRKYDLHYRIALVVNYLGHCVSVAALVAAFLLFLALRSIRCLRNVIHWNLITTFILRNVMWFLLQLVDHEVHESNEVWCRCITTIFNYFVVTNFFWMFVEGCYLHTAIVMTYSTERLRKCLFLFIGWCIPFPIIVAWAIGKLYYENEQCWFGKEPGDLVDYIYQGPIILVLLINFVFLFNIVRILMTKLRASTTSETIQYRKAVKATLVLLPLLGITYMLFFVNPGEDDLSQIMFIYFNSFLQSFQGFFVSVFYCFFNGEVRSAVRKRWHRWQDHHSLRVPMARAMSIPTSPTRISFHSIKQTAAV
Description: human CRHR2b cell-based cAMP assay. The procedure, abridged:
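ED50 values are means ± SEM over several runs, curve-fitted from cAMP in pmol, calibrated against unlabeled-cAMP standards. Detection was HTRF competition, ratio 665/620 nm, after 30 min agonist exposure at 37 °C.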

Where [1] appears, read: cAMP assay, Table 26, compounds of Example 9, read-out: hCRHR2b Average EC50.

Where two headings read alike, the source gives them in different places. Starred links: 1 amine or outer side, 2 acyl side, 3 side chain; linkers in the order of their positions; H or OH if unused. Non-standard residues stand in square brackets, D forms with d. Residues, ends and D or L forms follow the SMILES beside them. Groups on a side chain read outwards from the residue. *: point of attachment. C20 diacid = O=C(O)CCCCCCCCCCCCCCCCCCC(=O)*; C18 diacid = O=C(O)CCCCCCCCCCCCCCCCC(=O)*; γGlu = O=C(O)[C@H](CCC(=O)[*:2])N[*:1]; NMeI = CC[C@H](C)[C@H](NC)C(=O)O; AEEA = NCCOCCOCC(=O)O

In turn, `CC[C@H](C)[C@H](N)C(=O)N[C@H](C(=O)N[C@@H](CC(C)C)C(=O)N[C@@H](CO)C(=O)N[C@@H](CC(C)C)C(=O)N[C@@H](CC(=O)O)C(=O)N[C@H](C(=O)N1CCC[C@H]1C(=O)N[C@H](C(=O)NCC(=O)N[C@@H](CC(C)C)C(=O)N[C@@H](CC(C)C)C(=O)N[C@@H](CCC(N)=O)C(=O)N[C@H](C(=O)N[C@@H](CC(C)C)C(=O)N[C@@H](CC(C)C)C(=O)N[C@@H](CCCCNC(=O)COCCOCCNC(=O)COCCOCCNC(=O)CC[C@H](NC(=O)CC[C@H](NC(=O)CCCCCCCCCCCCCCCCC(=O)O)C(=O)O)C(=O)O)C(=O)N[C@@H](CCC(N)=O)C(=O)N[C@@H](CCC(=O)O)C(=O)N[C@@H](CCCCN)C(=O)N[C@@H](CCC(N)=O)C(=O)N[C@@H](CCC(=O)O)C(=O)N[C@@H](CCCCN)C(=O)N[C@@H](CCC(=O)O)C(=O)N[C@@H](CCCCN)C(=O)N[C@@H](CCC(N)=O)C(=O)N[C@@H](CCC(N)=O)C(=O)N[C@@H](C)C(=O)N[C@H](C(=O)N[C@@H](CCC(=O)O)C(=O)N[C@@H](CC(N)=O)C(=O)N[C@@H](C)C(=O)N[C@@H](CCC(N)=O)C(=O)N[C@H](C(=O)N[C@@H](CC(C)C)C(=O)N[C@@H](C)C(=O)N[C@@H](CCC(N)=O)C(=O)N[C@H](C(N)=O)C(C)C)[C@@H](C)CC)[C@@H](C)O)[C@@H](C)CC)[C@@H](C)CC)C(C)C)C(C)C` [Compound 53] (H-IVLSLDVPIGLLQILLK([AEEA-AEEA-γGlu-γGlu-C18 diacid])QEKQEKEKQQATENAQILAQV-NH2) had an EC50 of 4.01 nM.
`CC[C@H](C)[C@H](N)C(=O)N[C@H](C(=O)N[C@@H](CC(C)C)C(=O)N[C@@H](CO)C(=O)N[C@@H](CC(C)C)C(=O)N[C@@H](CC(=O)O)C(=O)N[C@H](C(=O)N1CCC[C@H]1C(=O)N[C@H](C(=O)NCC(=O)N[C@@H](CC(C)C)C(=O)N[C@@H](CC(C)C)C(=O)N[C@@H](CCC(N)=O)C(=O)N[C@H](C(=O)N[C@@H](CC(C)C)C(=O)N[C@@H](CC(C)C)C(=O)N[C@@H](CCC(=O)O)C(=O)N[C@@H](CCC(N)=O)C(=O)N[C@@H](CCC(=O)O)C(=O)N[C@@H](CCCCN)C(=O)N[C@@H](CCC(N)=O)C(=O)N[C@@H](CCC(=O)O)C(=O)N[C@@H](CCCCN)C(=O)N[C@@H](CCC(=O)O)C(=O)N[C@@H](CCCCN)C(=O)N[C@@H](CCCCNC(=O)COCCOCCNC(=O)COCCOCCNC(=O)CC[C@H](NC(=O)CC[C@H](NC(=O)CCCCCCCCCCCCCCCCC(=O)O)C(=O)O)C(=O)O)C(=O)N[C@@H](CCC(N)=O)C(=O)N[C@@H](C)C(=O)N[C@H](C(=O)N[C@@H](CCC(=O)O)C(=O)N[C@@H](CC(N)=O)C(=O)N[C@@H](C)C(=O)N[C@@H](CCC(N)=O)C(=O)N[C@H](C(=O)N[C@@H](CC(C)C)C(=O)N[C@@H](C)C(=O)N[C@@H](CCC(N)=O)C(=O)N[C@H](C(N)=O)C(C)C)[C@@H](C)CC)[C@@H](C)O)[C@@H](C)CC)[C@@H](C)CC)C(C)C)C(C)C` [Compound 54] (H-IVLSLDVPIGLLQILLEQEKQEKEKK([AEEA-AEEA-γGlu-γGlu-C18 diacid])QATENAQILAQV-NH2): under setting [1], the EC50 stood at 4.26 nM.
The same measure, in the same setting: the value for `CC[C@H](C)[C@H](N)C(=O)N[C@H](C(=O)N[C@@H](CC(C)C)C(=O)N[C@@H](CO)C(=O)N[C@@H](CC(C)C)C(=O)N[C@@H](CC(=O)O)C(=O)N[C@H](C(=O)N1CCC[C@H]1C(=O)N[C@H](C(=O)NCC(=O)N[C@@H](CC(C)C)C(=O)N[C@@H](CC(C)C)C(=O)N[C@@H](CCC(N)=O)C(=O)N[C@H](C(=O)N[C@@H](CC(C)C)C(=O)N[C@@H](CC(C)C)C(=O)N[C@@H](CCC(=O)O)C(=O)N[C@@H](CCC(N)=O)C(=O)N[C@@H](CCC(=O)O)C(=O)N[C@@H](CCCCN)C(=O)N[C@@H](CCC(N)=O)C(=O)N[C@@H](CCC(=O)O)C(=O)N[C@@H](CCCCN)C(=O)N[C@@H](CCC(=O)O)C(=O)N[C@@H](CCCCN)C(=O)N[C@@H](CCC(N)=O)C(=O)N[C@@H](CCC(N)=O)C(=O)N[C@@H](C)C(=O)N[C@@H](CCCCNC(=O)COCCOCCNC(=O)COCCOCCNC(=O)CC[C@H](NC(=O)CC[C@H](NC(=O)CCCCCCCCCCCCCCCCC(=O)O)C(=O)O)C(=O)O)C(=O)N[C@@H](CCC(=O)O)C(=O)N[C@@H](CC(N)=O)C(=O)N[C@@H](C)C(=O)N[C@@H](CCC(N)=O)C(=O)N[C@H](C(=O)N[C@@H](CC(C)C)C(=O)N[C@@H](C)C(=O)N[C@@H](CCC(N)=O)C(=O)N[C@H](C(N)=O)C(C)C)[C@@H](C)CC)[C@@H](C)CC)[C@@H](C)CC)C(C)C)C(C)C` [Compound 55] (H-IVLSLDVPIGLLQILLEQEKQEKEKQQAK([AEEA-AEEA-γGlu-γGlu-C18 diacid])ENAQILAQV-NH2) was 1.51 nM.
On to `CC[C@H](C)[C@H](NC)C(=O)N[C@H](C(=O)N[C@@H](CC(C)C)C(=O)N[C@@H](CO)C(=O)N[C@@H](CC(C)C)C(=O)N[C@@H](CC(=O)O)C(=O)N[C@H](C(=O)N1CCC[C@H]1C(=O)N[C@H](C(=O)NCC(=O)N[C@@H](CC(C)C)C(=O)N[C@@H](CC(C)C)C(=O)N[C@@H](CCC(N)=O)C(=O)N[C@H](C(=O)N[C@@H](CC(C)C)C(=O)N[C@@H](CC(C)C)C(=O)N[C@@H](CCC(=O)O)C(=O)N[C@@H](CCC(N)=O)C(=O)N[C@@H](CCC(=O)O)C(=O)N[C@@H](CCCCN)C(=O)N[C@@H](CCC(N)=O)C(=O)N[C@@H](CCC(=O)O)C(=O)N[C@@H](CCCCN)C(=O)N[C@@H](CCC(=O)O)C(=O)N[C@@H](CCCCN)C(=O)N[C@@H](CCC(N)=O)C(=O)N[C@@H](CCC(N)=O)C(=O)N[C@@H](C)C(=O)N[C@@H](CCCCNC(=O)COCCOCCNC(=O)CC[C@H](NC(=O)CC[C@H](NC(=O)CCCCCCCCCCCCCCCCCCC(=O)O)C(=O)O)C(=O)O)C(=O)N[C@@H](CCC(=O)O)C(=O)N[C@@H](CC(N)=O)C(=O)N[C@@H](C)C(=O)N[C@@H](CCC(=O)O)C(=O)N[C@H](C(=O)N[C@@H](CC(C)C)C(=O)N[C@@H](C)C(=O)N[C@@H](CCC(N)=O)C(=O)N[C@H](C(N)=O)C(C)C)[C@@H](C)CC)[C@@H](C)CC)[C@@H](C)CC)C(C)C)C(C)C` [Compound 57] (H-[NMeI]VLSLDVPIGLLQILLEQEKQEKEKQQAK([AEEA-γGlu-γGlu-C20 diacid])ENAEILAQV-NH2), for which, under setting [1], the EC50 amounted to 3.65 nM.
Regarding `CC[C@H](C)[C@H](NC)C(=O)N[C@H](C(=O)N[C@@H](CC(C)C)C(=O)N[C@@H](CO)C(=O)N[C@@H](CC(C)C)C(=O)N[C@@H](CC(=O)O)C(=O)N[C@H](C(=O)N1CCC[C@H]1C(=O)N[C@H](C(=O)NCC(=O)N[C@@H](CC(C)C)C(=O)N[C@@H](CC(C)C)C(=O)N[C@@H](CCC(N)=O)C(=O)N[C@H](C(=O)N[C@@H](CC(C)C)C(=O)N[C@@H](CC(C)C)C(=O)N[C@@H](CCC(=O)O)C(=O)N[C@@H](CCC(N)=O)C(=O)N[C@@H](CCC(=O)O)C(=O)N[C@@H](CCCCN)C(=O)N[C@@H](CCC(N)=O)C(=O)N[C@@H](CCC(=O)O)C(=O)N[C@@H](CCCCN)C(=O)N[C@@H](CCC(=O)O)C(=O)N[C@@H](CCCCN)C(=O)N[C@@H](CCC(N)=O)C(=O)N[C@@H](CCC(N)=O)C(=O)N[C@@H](C)C(=O)N[C@@H](CCCCNC(=O)CC[C@H](NC(=O)CC[C@H](NC(=O)CCCCCCCCCCCCCCCCCCC(=O)O)C(=O)O)C(=O)O)C(=O)N[C@@H](CCC(=O)O)C(=O)N[C@@H](CC(N)=O)C(=O)N[C@@H](C)C(=O)N[C@@H](CCC(=O)O)C(=O)N[C@H](C(=O)N[C@@H](CC(C)C)C(=O)N[C@@H](C)C(=O)N[C@@H](CCC(N)=O)C(=O)N[C@H](C(N)=O)C(C)C)[C@@H](C)CC)[C@@H](C)CC)[C@@H](C)CC)C(C)C)C(C)C` [Compound 58] (H-[NMeI]VLSLDVPIGLLQILLEQEKQEKEKQQAK([γGlu-γGlu-C20 diacid])ENAEILAQV-NH2), under setting [1], the EC50 was 3.79 nM.
